Test results: US7745390B2, “Antimicrobial peptides” (priority 2005, dated 2010)
≈ marks a conversion by molar mass, not a printed value. Square brackets hold non-standard residues; d marks the D form. Ends that are not written are not given here. Peptide text beside a SMILES is read from it.

Columns and labels:
bacterial strains = assay: organism not typed; format: cell-based
Procedure: (§1) Three preferred peptides G11.46, G12.21 and G14.15, discussed above, were further tested for antimicrobial efficacy under various conditions using the 10% FCS/DMEM assay as described under CFU assay. The incubation times with the bacteria and peptide was three hours, at which time the bacteria were diluted and plated on agar. […] The MIC for each compound is highlighted.
Table 9 below repeats some data presented above in Tables 6, 7, and 8.

Salmonella = format: cell-based, S. typhimurium; details: pH 7.2
In short: (§2)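 Single-well growth assay: peptide + bacteria (~5×10^6 CFU/ml) in 10 mM phosphate pH 7.2/0.03% LB, 3 h 37 °C; add LB, overnight; OD600. MIC = lowest conc., no growth; IC50 = 50% growth vs medium.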

[1] = test system: human peripheral blood mononuclear cells (PBMC); assay: Propidium iodide uptake in PBMC; format: cell-based; details: for PI uptake in normal human PBMC: 50 μM peptide, three hours
Excerpt: The second assay for effects on mammalian cells involved isolating human peripheral blood mononuclear cells (PBMC) and testing peptide induced uptake of propidium iodide (PI), a measure of membrane disruption. […] Thus, the vast majority of granulysin peptide derivatives are not toxic to mammalian cells even at high concentrations.

E. coli DH5a = format: cell-based; details: DH5a; for E. coli DH5a MIC / IC50: pH 7.2
In short: as §2

B. cereus = format: cell-based; details: pH 7.2
In short: as §2

U937 cells = assay: Lysis of tumor cells: apoptosis of U937 by 3H-thymidine; details: U937, 50 μM peptide, 4-6 hours
Procedure: The effects were tested in two ways. First, peptides were tested for the ability to lyse tumor cells, as judged by induction of apoptosis in the monocyte-like cell line U937. U937 cells were cultured overnight in DMEM supplemented with 10% FCS plus 1 μCi/ml ^3H-thymidine. The next day, cells were washed and cultured in DMEM/10% FCS in the presence of 50 μM peptide for 4-6 hours. Cells were then harvested and ^3H-thymidine determined by beta-scintillation counting. Apoptosis results in DNA fragmentation, so the ^3H-thymidine is reduced in cells undergoing apoptosis.

Jurkat cells = format: cell-based
Excerpt: (§3) To further investigate the contribution of secondary structure to function, additional Peptides G16-G19 (beyond peptides G1-G15, previously reported) were synthesized. Peptide G16 is identical to G13, except that a D-alanine residue was substituted for the L-alanine at position 30. […] In peptide G17, the two arginine residues in loop two are substituted with glutamine.
(§4) As shown above, substitution of the two arginine residues in Loop 2 with glutamine abrogates activity against Jurkat cells but only slightly affects lysis of S. typhimurium. Peptide G18 is identical to G14 except that a D-arginine was substituted at position 46. […] Peptide G19 incorporates both the R→Q substitutions as well as the D-arginine at position 46.

S. typhimurium = assay: Lysis of bacteria by counting bacterial colonies on plates; format: cell-based; details: colony counting
Excerpt: as §3, §4
The experiments described above characterizing the activity of granulysin peptides G1-G18 relied on counting bacterial colonies on plates. This assay is quite labor intensive and would not allow evaluation of many different compounds on a number of different microbes. Therefore, we optimized an assay in which the entire procedure could be completed in a single microtiter well. […] The OD at 600 nm is read on an ELISA plate reader. […]

E. coli = assay: CFU assay in 10% FCS/DMEM; format: cell-based; details: 3 hrs
Procedure: (§5) The CFU assay is the “gold standard” for evaluating antibiotics. Briefly, bacteria are grown overnight in rich medium, such as LB, and then diluted and grown in log phase for 2-4 hours. Cultures are set up as above, with the initial culture media being 10 mM phosphate buffer/0.03% LB; DMEM or RPMI; or DMEM or RPMI plus 10% serum (fetal calf, human, or mouse). After various periods of time, but generally 3 hours or less, aliquots are removed, diluted in LB at various dilutions, and plated on LB agar plates. Plates are incubated overnight at 37° C. and counted on an automatic colony counter.
as §1

Staphylococcus aureus = assay: CFU assay in 10% FCS/DMEM; format: cell-based; details: 3 hrs
Procedure: as §5, §1

Salmonella typhimurium = assay: CFU assay in 10% FCS/DMEM; format: cell-based; details: 3 hrs
Procedure: as §5, §1

Compound: CSCC[C@@H](NC(=O)[C@H]1CCCN1C(=O)[C@@H](CCCNC(=N)N)NC(=O)[C@@H](CCCNC(=N)N)NC(=O)[C@@H](CO)NC(=O)[C@H](NC(=O)[C@@H](CCCNC(=N)N)NC(=O)[C@H](N)CCCNC(=N)N)C(C)C)C(=O)N[C@H](CCCNC(=N)N)C(=O)N[C@H](CCCNC(=N)N)C(=O)N[C@H](Cc1ccc(O)cc1)C(=O)N[C@H](CCCNC(=N)N)C(=O)N[C@H](CO)C(=O)N[C@H](CCCNC(=N)N)C(=O)N[C@H](CCCNC(=N)N)C(=O)N1CCC[C@@H]1C(=O)N[C@H](CCCNC(=N)N)C(=O)N[C@H](CCCNC(=N)N)C(=O)N[C@H](CC(C)C)C(=O)N[C@@H](C(=O)O)C(C)C [Peptide G12.21, rrvsrrpmrryrsrrprrlv] (H-[dR][dR][dV][dS][dR][dR][dP][dM][dR][dR][dY][dR][dS][dR][dR][dP][dR][dR][dL][dV]-OH)
- MIC (bacterial strains; ATCC#25922, 3 h): 0.63 µM (≈ 1.71 µg/mL)
- MIC (bacterial strains; ATCC#29213, 3 h): 0.32 to 0.63 µM
- MIC (bacterial strains; ATCC#53522, 3 h): 0.02 µM (≈ 0.0542 µg/mL)
- MIC (bacterial strains; SL1344, 3 h): 1.25 to 2.5 µM
- IC50 (Salmonella): 210 nM
- Salmonella MIC (Salmonella): 0.35 µM
- toxicity against mammalian cells [1]: no toxicity
- MIC (E. coli DH5a): 0.2 µM (≈ 0.542 µg/mL)
- E. coli DH5a MIC (E. coli DH5a): 0.2 µM
- IC50 (E. coli DH5a): < 78 nM
- B. cereus MIC (B. cereus): 0.35 µM
- IC50 (B. cereus): 210 nM

Compound: CC[C@@H](C)[C@@H](NC(=O)[C@@H](CCCNC(=N)N)NC(=O)[C@@H](CCCNC(=N)N)NC(=O)[C@@H](CO)NC(=O)[C@@H](CCCNC(=N)N)NC(=O)[C@@H](Cc1ccc(O)cc1)NC(=O)[C@@H](CCCNC(=N)N)NC(=O)[C@@H](CCCNC(=N)N)NC(=O)[C@@H](CCSC)NC(=O)[C@@H](Cc1ccccc1)NC(=O)[C@@H](CCCNC(=N)N)NC(=O)[C@@H](CCCNC(=N)N)NC(=O)[C@@H](CO)NC(=O)[C@H](NC(=O)[C@@H](CCCNC(=N)N)NC(=O)[C@H](N)CCCNC(=N)N)C(C)C)C(=O)N[C@H](CCCNC(=N)N)C(=O)N[C@H](CCCNC(=N)N)C(=O)N[C@H](CC(C)C)C(=O)N[C@@H](C(=O)O)C(C)C [Peptide G12.34, rrvsrrfmrryrsrrirrlv] (H-[dR][dR][dV][dS][dR][dR][dF][dM][dR][dR][dY][dR][dS][dR][dR][dI][dR][dR][dL][dV]-OH)
- apoptosis of tumor cells (U937 cells): cause apoptosis of tumor cells
- IC50 (Salmonella): 210 nM
- Salmonella MIC (Salmonella): 0.78 µM
- toxicity against mammalian cells [1]: somewhat lytic against mammalian cells
- PI uptake in normal human PBMC [1]: caused PI uptake in normal human PBMC
- E. coli DH5a MIC (E. coli DH5a): 0.2 µM
- IC50 (E. coli DH5a): 110 nM
- B. cereus MIC (B. cereus): 0.31 µM
- IC50 (B. cereus): 120 nM

Compound: CSCC[C@@H](NC(=O)[C@@H](Cc1ccccc1)NC(=O)[C@@H](CCCNC(=N)N)NC(=O)[C@@H](CCCNC(=N)N)NC(=O)[C@@H](CO)NC(=O)[C@H](NC(=O)[C@@H](CCCNC(=N)N)NC(=O)[C@H](N)CCCNC(=N)N)C(C)C)C(=O)N[C@H](CCCNC(=N)N)C(=O)N[C@H](CCCNC(=N)N)C(=O)N[C@H](Cc1ccc(O)cc1)C(=O)N[C@H](CCCNC(=N)N)C(=O)N[C@H](CO)C(=O)N[C@H](CCCNC(=N)N)C(=O)N[C@H](CCCNC(=N)N)C(=O)N1CCC[C@@H]1C(=O)N[C@H](CCCNC(=N)N)C(=O)N[C@H](CCCNC(=N)N)C(=O)N[C@H](CC(C)C)C(=O)N[C@@H](C(=O)O)C(C)C [Peptide G12.35, rrvsrrfmrryrsrrprrlv] (H-[dR][dR][dV][dS][dR][dR][dF][dM][dR][dR][dY][dR][dS][dR][dR][dP][dR][dR][dL][dV]-OH)
- apoptosis of tumor cells (U937 cells): cause apoptosis of tumor cells
- IC50 (Salmonella): 210 nM
- Salmonella MIC (Salmonella): 0.32 µM
- toxicity against mammalian cells [1]: somewhat less toxic against mammalian cells
- PI uptake in normal human PBMC [1]: caused PI uptake in normal human PBMC
- E. coli DH5a MIC (E. coli DH5a): 0.11 µM
- IC50 (E. coli DH5a): < 78 nM
- B. cereus MIC (B. cereus): 0.75 µM
- IC50 (B. cereus): 450 nM

Compound: CSCC[C@@H](NC(=O)[C@@H](Cc1ccccc1)NC(=O)[C@@H](CCCNC(=N)N)NC(=O)[C@@H](CCCNC(=N)N)NC(=O)[C@@H](CO)NC(=O)[C@H](NC(=O)[C@@H](CCCNC(=N)N)NC(=O)[C@@H](CCCNC(=N)N)NC(=O)[C@@H](Cc1c[nH]c2ccccc12)NC(=O)[C@@H](CCCNC(=N)N)NC(=O)[C@@H](CO)NC(=O)[C@@H](CCCNC(=N)N)NC(=O)CN)C(C)C)C(=O)N[C@H](CCCNC(=N)N)C(=O)N[C@H](CCCNC(=N)N)C(=O)O [Peptide G14.15, grsrwrrvsrrfmrr] (H-G[dR][dS][dR][dW][dR][dR][dV][dS][dR][dR][dF][dM][dR][dR]-OH)
- MIC (bacterial strains; ATCC#25922, 3 h): 0.63 to 1.25 µM
- MIC (bacterial strains; ATCC#29213, 3 h): 10 µM (≈ 20.6 µg/mL)
- MIC (bacterial strains; ATCC#53522, 3 h): 0.16 µM (≈ 0.33 µg/mL)
- MIC (bacterial strains; SL1344, 3 h): 2.5 to 5 µM
- IC50 (Salmonella): 150 nM
- Salmonella MIC (Salmonella): 0.35 µM
- PI uptake in normal human PBMC [1]: caused PI uptake in normal human PBMC
- MIC (E. coli DH5a): 0.3 µM (≈ 0.619 µg/mL)
- E. coli DH5a MIC (E. coli DH5a): 0.1 µM
- IC50 (E. coli DH5a): < 78 nM
- B. cereus MIC (B. cereus): 0.2 µM
- IC50 (B. cereus): < 78 nM

Compound: CSCC[C@H](NC(=O)[C@H](Cc1ccccc1)NC(=O)[C@H](CC(N)=O)NC(=O)[C@@H](CCCNC(=N)N)NC(=O)[C@H](CS)NC(=O)[C@@H](NC(=O)[C@H](CC(=O)O)NC(=O)[C@H](CCCNC(=N)N)NC(=O)[C@H](Cc1c[nH]c2ccccc12)NC(=O)[C@H](CCCNC(=N)N)NC(=O)[C@H](CO)NC(=O)[C@H](CCCNC(=N)N)NC(=O)CN)C(C)C)C(=O)N[C@@H](CCCNC(=N)N)C(=O)N[C@@H](CCCNC(=N)N)C(=O)O [Peptide G18, GRSRWRDVCrNFMRR] (H-GRSRWRDVC[dR]NFMRR-OH)
- lysis of Jurkat cells (Jurkat cells): loses some activity against Jurkat cells

Compound: GQSQWRDVCrNFMRR [Peptide G19]
- lysis of bacteria (S. typhimurium) (S. typhimurium): behaves identically to G115

Compound: GRSRWRDVCRNFMRR [Peptide G14, GRSRWRDVCRNFMRR, reference compound]
- lysis of Jurkat cells (Jurkat cells): lyses both bacteria and mammalian cells
- IC50 (Salmonella): 890 nM
- Salmonella MIC (Salmonella): 1.37 µM
- E. coli DH5a MIC (E. coli DH5a): 1.37 µM
- IC50 (E. coli DH5a): 890 nM
- B. cereus MIC (B. cereus): 2.8 µM
- IC50 (B. cereus): 1750 nM

Compound: QRSVSNAaTRVCRTGQSQW [Peptide G17]
- lysis of Jurkat cells (Jurkat cells): Neither peptide G16 nor G17 lysed Jurkat cells in an appreciable way
- lysis of bacteria (S. typhimurium) (S. typhimurium): no longer exhibits activity against S. typhimurium

Compound: gentamicin [reference compound]
- MIC (bacterial strains; E. Coli (ATCC#25922), CFU Assay in 10% FCS/DMEM (3 hrs)): 1.25 µM
- MIC (bacterial strains; Salmonella (SL1344), CFU Assay in 10% FCS/DMEM (3 hrs)): 2.5 to 5 µM
- MIC (bacterial strains; Staph A (ATCC#29213), CFU Assay in 10% FCS/DMEM (3 hrs)): >1.25 µM
- % Survival (CFU Assay) (E. coli; 0.08 μM): 117.89%
- % Survival (CFU Assay) (E. coli; 0.16 μM): 110.6%
- % Survival (CFU Assay) (E. coli; 0.32 μM): 87.76%
- % Survival (CFU Assay) (E. coli; 0.63 μM): 17.05%
- % Survival (CFU Assay) (E. coli; 1.25 μM): 0.21%
- % Survival (CFU Assay) (E. coli; 2.5 μM): 0.052%
- % Survival (CFU Assay) (Staphylococcus aureus; 0.04 μM): 90.73%
- % Survival (CFU Assay) (Staphylococcus aureus; 0.08 μM): 78.94%
- % Survival (CFU Assay) (Staphylococcus aureus; 0.16 μM): 59.49%
- % Survival (CFU Assay) (Staphylococcus aureus; 0.32 μM): 37%
- % Survival (CFU Assay) (Staphylococcus aureus; 0.63 μM): 28.51%
- % Survival (CFU Assay) (Staphylococcus aureus; >1.25 μM): 17.1%
- % Survival (CFU Assay) (Salmonella typhimurium; 0.04 μM): 119.73%
- % Survival (CFU Assay) (Salmonella typhimurium; 0.08 μM): 103.72%
- % Survival (CFU Assay) (Salmonella typhimurium; 0.16 μM): 105.73%
- % Survival (CFU Assay) (Salmonella typhimurium; 0.32 μM): 93.27%
- % Survival (CFU Assay) (Salmonella typhimurium; 0.63 μM): 70.15%
- % Survival (CFU Assay) (Salmonella typhimurium; >1.25 μM): 29.7%
